Broadly, the inhibition is the share of the control response that was lost under treatment. The EC50 is the concentration needed to bring the measured effect to its halfway point. As a reminder, the IC50 is the concentration that gives 50% inhibition. High values mean a need for much substance, low ones inhibition by little substance.

In test [1] the target is T1, Potassium/sodium hyperpolarization-activated cyclic nucleotide-gated channel 4 (Homo sapiens) (UniProt Q9Y3Q4).
T1 sequence (whole entry): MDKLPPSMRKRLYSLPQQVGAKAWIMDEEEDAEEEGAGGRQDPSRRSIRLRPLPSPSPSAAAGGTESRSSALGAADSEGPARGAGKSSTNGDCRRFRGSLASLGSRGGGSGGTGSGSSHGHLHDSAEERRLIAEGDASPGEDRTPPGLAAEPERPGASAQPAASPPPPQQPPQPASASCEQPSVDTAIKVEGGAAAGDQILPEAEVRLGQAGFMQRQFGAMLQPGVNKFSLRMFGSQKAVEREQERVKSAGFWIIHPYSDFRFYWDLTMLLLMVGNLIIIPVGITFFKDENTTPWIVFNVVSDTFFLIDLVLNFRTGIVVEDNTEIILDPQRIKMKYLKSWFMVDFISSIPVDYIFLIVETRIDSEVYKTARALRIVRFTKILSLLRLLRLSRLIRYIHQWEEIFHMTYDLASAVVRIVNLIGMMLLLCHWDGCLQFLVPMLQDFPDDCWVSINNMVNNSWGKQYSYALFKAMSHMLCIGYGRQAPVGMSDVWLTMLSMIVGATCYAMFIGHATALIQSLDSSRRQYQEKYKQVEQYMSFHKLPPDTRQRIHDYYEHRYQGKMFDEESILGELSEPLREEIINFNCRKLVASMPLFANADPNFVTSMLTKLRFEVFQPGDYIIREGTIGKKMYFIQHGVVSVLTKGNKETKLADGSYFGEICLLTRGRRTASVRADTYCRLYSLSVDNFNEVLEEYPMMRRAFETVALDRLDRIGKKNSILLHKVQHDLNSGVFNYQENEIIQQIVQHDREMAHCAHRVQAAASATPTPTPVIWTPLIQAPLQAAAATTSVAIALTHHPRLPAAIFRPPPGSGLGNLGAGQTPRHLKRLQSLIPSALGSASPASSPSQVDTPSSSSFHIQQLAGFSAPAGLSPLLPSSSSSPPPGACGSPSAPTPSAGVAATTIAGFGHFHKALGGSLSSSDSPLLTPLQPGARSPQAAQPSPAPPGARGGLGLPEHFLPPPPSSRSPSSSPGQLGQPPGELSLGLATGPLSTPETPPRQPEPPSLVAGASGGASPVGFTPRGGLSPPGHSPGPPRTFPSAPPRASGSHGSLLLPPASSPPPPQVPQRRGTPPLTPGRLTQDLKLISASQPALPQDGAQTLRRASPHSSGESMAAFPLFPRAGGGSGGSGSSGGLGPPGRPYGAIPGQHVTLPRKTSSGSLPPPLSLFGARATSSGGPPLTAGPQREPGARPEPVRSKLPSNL
The test can be described thus: Inhibition of human HCN4 expressed in HEK293 cells assessed as reduction in hyperpolarization activated current at 5 uM at holding potential of -80 mV by patch clamp assay relative to control. It is filed as cell-based. Background: Patch clamp records ionic current or voltage across a cell membrane.

In test [2] the target is T2, Potassium/sodium hyperpolarization-activated cyclic nucleotide-gated channel 4 (Homo sapiens, UniProt Q9Y3Q4).
T2 sequence (Q9Y3Q4 whole entry): T1 sequence (whole entry)
Put plainly: Inhibition of human HCN4 expressed in HEK293 cells assessed as reduction in hyperpolarization activated current at holding potential of -80 mV by patch clamp assay. It is filed as cell-based.

Test [3] has as its target Potassium/sodium hyperpolarization-activated cyclic nucleotide-gated channel 1 (Mus musculus, UniProt O88704). The test can be described thus: Inhibition of mouse HCN1 expressed in HEK293 cells assessed as reduction in hyperpolarization activated current at holding potential of -80 mV by patch clamp assay. The class given is cell-based.
Test [4] in a line: Selectivity ratio of EC50 for human HCN1 to EC50 for mouse HCN4.
Test [5] is described as follows: Selectivity ratio of EC50 for human HCN2 to EC50 for mouse HCN4.
Test [6] relates to Cardiac muscle of left ventricle. The test can be described thus: Effect on cardiac electrophysiological profile in Mongrel perfused dog heart left ventricular muscle stimulated at basic cycle length of 1000 milliseconds assessed as conduction time at 10 uM measured after 25 mins by glass capillary microelectrode based electrophysiology assay (reference value: 4.8 +/- 0.60 milliseconds). It is filed as functional, Canis lupus familiaris.

For test [7] the test system is unchanged. Put plainly: Effect on cardiac electrophysiological profile in Mongrel perfused dog heart left ventricular muscle stimulated at basic cycle length of 1000 milliseconds assessed as action potential amplitude at 1 uM measured after 25 mins by glass capillary microelectrode based electrophysiology assay (reference value: 104.1 +/- 2.7 mV). The class given is functional, Canis lupus familiaris.

The test system is the same in test [8]. Put plainly: Effect on cardiac electrophysiological profile in Mongrel perfused dog heart left ventricular muscle stimulated at basic cycle length of 1000 milliseconds assessed as action potential amplitude at 10 uM measured after 25 mins by glass capillary microelectrode based electrophysiology assay (reference value: 104.1 +/- 2.7 mV). The class given is functional, Canis lupus familiaris.

The test system is the same in test [9]. Put plainly: Effect on cardiac electrophysiological profile in Mongrel perfused dog heart left ventricular muscle stimulated at basic cycle length of 1000 milliseconds assessed as Vmax at 10 uM measured after 25 mins by glass capillary microelectrode based electrophysiology assay (reference value: 244.6 +/- 30.87 V/s). It is filed as functional, Canis lupus familiaris.

For test [10] the test system is unchanged. The test can be described thus: Effect on cardiac electrophysiological profile in Mongrel perfused dog heart left ventricular muscle stimulated at basic cycle length of 1000 milliseconds assessed as action potential time duration at 90% of repolarization at 10 uM measured after 25 mins by glass capillary microelectrode based electrophysiology assay (reference value: 212.5 +/- 16.25 milliseconds). It is filed as functional, Canis lupus familiaris.

Test [11] shares this test system. Put plainly: Effect on cardiac electrophysiological profile in Mongrel perfused dog heart left ventricular muscle stimulated at basic cycle length of 1000 milliseconds assessed as action potential time duration at 75% of repolarization at 1 uM measured after 25 mins by glass capillary microelectrode based electrophysiology assay (reference value: 199.7 +/- 16.87 milliseconds). It is filed as functional, Canis lupus familiaris.

Test [12] shares this test system. Put plainly: Effect on cardiac electrophysiological profile in Mongrel perfused dog heart left ventricular muscle stimulated at basic cycle length of 1000 milliseconds assessed as action potential time duration at 50% of repolarization at 10 uM measured after 25 mins by glass capillary microelectrode based electrophysiology assay (reference value: 176 +/- 16.36 milliseconds). The class given is functional, Canis lupus familiaris.

The test system is the same in test [13]. Put plainly: Effect on cardiac electrophysiological profile in Mongrel perfused dog heart left ventricular muscle stimulated at basic cycle length of 1000 milliseconds assessed as action potential time duration at 25% of repolarization at 1 uM measured after 25 mins by glass capillary microelectrode based electrophysiology assay (reference value: 131.7 +/- 13.1 milliseconds). It is filed as functional, Canis lupus familiaris.

Test [14] shares this test system. Put plainly: Effect on cardiac electrophysiological profile in Mongrel perfused dog heart left ventricular muscle stimulated at basic cycle length of 1000 milliseconds assessed as action potential time duration at 25% of repolarization at 10 uM measured after 25 mins by glass capillary microelectrode based electrophysiology assay (reference value: 131.7 +/- 13.1 milliseconds). It is filed as functional, Canis lupus familiaris.

The test system is the same in test [15]. Put plainly: Effect on cardiac electrophysiological profile in Mongrel perfused dog heart left ventricular muscle stimulated at basic cycle length of 1000 milliseconds assessed as action potential time duration at 10% of repolarization at 1 uM measured after 25 mins by glass capillary microelectrode based electrophysiology assay (reference value: 69.9 +/- 10.84 milliseconds). The class given is functional, Canis lupus familiaris.

Test [16] is described as follows: Negative chronotropic activity at HCN4 in guinea-pig spontaneously beating isolated atria. The conditions noted are these: Cavia porcellus.
The species named for test [17] is Mus musculus. The test can be described thus: Effect on transient A type potassium channel in C57BL/6J mouse thalamocortical relay neuron assessed as effect on early transient current at 10 uM by whole cell patch clamp assay relative to control.

Activity calls are given as the source filed them. No cut-off for these calls is given here.

Chain of Potassium/sodium hyperpolarization-activated cyclic nucleotide-gated channel 1 (O88704 whole entry): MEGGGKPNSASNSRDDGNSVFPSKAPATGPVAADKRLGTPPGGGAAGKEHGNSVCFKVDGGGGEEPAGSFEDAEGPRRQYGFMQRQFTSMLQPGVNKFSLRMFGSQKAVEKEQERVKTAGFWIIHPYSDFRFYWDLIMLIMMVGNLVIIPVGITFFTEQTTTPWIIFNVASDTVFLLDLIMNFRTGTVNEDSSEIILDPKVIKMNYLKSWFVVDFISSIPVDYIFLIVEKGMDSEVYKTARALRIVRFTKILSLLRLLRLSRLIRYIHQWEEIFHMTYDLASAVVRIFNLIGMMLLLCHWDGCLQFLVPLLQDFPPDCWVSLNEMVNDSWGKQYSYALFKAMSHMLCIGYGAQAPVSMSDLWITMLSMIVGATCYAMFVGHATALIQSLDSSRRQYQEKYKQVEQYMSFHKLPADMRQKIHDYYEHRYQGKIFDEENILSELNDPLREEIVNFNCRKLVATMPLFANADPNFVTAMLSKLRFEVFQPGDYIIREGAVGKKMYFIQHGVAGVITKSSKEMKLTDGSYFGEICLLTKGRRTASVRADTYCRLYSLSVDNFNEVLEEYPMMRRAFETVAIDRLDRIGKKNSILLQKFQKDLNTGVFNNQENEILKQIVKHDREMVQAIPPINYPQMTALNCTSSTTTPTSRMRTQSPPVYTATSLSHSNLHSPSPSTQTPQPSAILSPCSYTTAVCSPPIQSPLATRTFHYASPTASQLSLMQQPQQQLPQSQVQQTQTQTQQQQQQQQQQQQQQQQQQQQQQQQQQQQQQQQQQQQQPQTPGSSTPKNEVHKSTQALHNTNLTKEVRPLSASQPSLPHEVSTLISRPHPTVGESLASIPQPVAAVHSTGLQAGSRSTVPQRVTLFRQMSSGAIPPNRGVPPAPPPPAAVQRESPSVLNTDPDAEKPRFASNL

With `COc1ccc(CCN(C)[C@@H]2CCC[C@H](N3CCc4cc(OC)c(OC)cc4CC3=O)C2)cc1OC` (racemic), the inhibition in test [1] was 59%. Also, the EC50 in test [2] worked out at 3.98 µM; in [3], 21 µM. Moreover, the Ratio EC50 in test [4] and in [5] was 5 throughout. The Time in test [6] came out at 5 ms; in test [10], 220.2 ms; in test [11], 191.9 ms; in test [12], 179.9 ms; in test [13] it was 121.6 ms; in test [14] it was 125.1 ms. Also, the Time in test [15] is recorded as 58.6 ms. The Activity stood at 103.1 mV in test [7], 102.3 mV in [8] and 140.6 V/s in test [9]. The compound also gave an IC50 in test [16] of 9.9 µM. Also, the outcome in test [17] was inactive.
